Experimental data: patent US20220118121A1, “PROSTATE SPECIFIC MEMBRANE ANTIGEN (PSMA) LIGANDS WITH IMPROVED TISSUE SPECIFICITY” (Ruprecht-Karls-Universität Heidelberg, priority 2019, published 2022)
Where a SMILES comes first, the peptide text is derived from it. [ ]: non-standard residue; d: D form. The star is where a group is joined. DOTA = O=C(O)CN1CCN(CC(=O)O)CCN(CC(=O)*)CCN(CC(=O)O)CC1; EuK = O=C(O)CC[C@H](NC(=O)N[C@@H](CCCCN*)C(=O)O)C(=O)O; 2Nal = N[C@@H](Cc1ccc2ccccc2c1)C(=O)O; Trx = NC[C@H]1CC[C@H](C(=O)O)CC1

Columns and labels:
prostate cancer = conditions: cited from earlier work
PSMA = target: T1, PSMA (Homo sapiens, UniProt Q04609); experiment: competitive cell binding assay vs 68Ga-labeled PSMA-10 on LNCaP cells; conditions: LNCaP cells, 0.8 nM 68Ga-PSMA-10 radioligand; read-out: Specific Binding Affinity IC50
T1 construct: host or cells: LNCaP cells
T1 sequence (Q04609 whole entry): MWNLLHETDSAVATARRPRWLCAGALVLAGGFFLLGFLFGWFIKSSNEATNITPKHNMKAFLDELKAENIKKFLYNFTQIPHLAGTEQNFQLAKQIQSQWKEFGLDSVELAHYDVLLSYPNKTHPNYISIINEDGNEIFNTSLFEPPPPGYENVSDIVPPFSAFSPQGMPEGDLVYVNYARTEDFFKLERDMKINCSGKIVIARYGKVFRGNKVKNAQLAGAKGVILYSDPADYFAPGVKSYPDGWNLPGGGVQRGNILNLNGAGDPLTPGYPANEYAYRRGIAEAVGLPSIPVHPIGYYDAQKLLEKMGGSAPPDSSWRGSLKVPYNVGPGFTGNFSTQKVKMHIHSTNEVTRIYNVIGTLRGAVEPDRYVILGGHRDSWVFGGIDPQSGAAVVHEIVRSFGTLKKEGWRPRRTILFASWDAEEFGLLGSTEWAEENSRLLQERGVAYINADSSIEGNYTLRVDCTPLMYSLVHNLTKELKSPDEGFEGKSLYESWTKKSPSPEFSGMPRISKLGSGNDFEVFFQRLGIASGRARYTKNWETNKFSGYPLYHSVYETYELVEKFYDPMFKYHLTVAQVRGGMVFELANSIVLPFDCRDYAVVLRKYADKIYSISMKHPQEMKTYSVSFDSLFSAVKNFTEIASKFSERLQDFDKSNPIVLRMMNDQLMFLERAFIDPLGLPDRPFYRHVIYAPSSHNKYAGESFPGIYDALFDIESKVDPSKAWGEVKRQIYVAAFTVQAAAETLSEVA
Protocol: (§1) PSMA^+ LNCaP cells (ATCC CRL-1740) were cultured in RPMI medium. Cells were grown at 37° C. in humidified air with 5% C02 and were harvested using trypsin-ethylenediaminetetraacetic acid.
(§2) The competitive cell binding assay and internalization experiments were performed according to Eder M et al. (2012), Bioconjug Chem 23(4):688.
Briefly, the cells (10^5 per well) were incubated with a 0.8 nM solution of ^68Ga-labeled radioligand [Glu-urea-Lys(Ahx)]2-HBED-CC (PSMA-10, precursor ordered from ABX, Radeberg, Germany) in the presence of 12 different concentrations of analyte (0-5000 nM, 100 μL/well). After incubation, the mixture was removed and the wells were washed 3 times with PBS using a multiscreen vacuum manifold (Millipore, Billerica, Mass.). Cell-bound radioactivity was measured using a gamma counter (Packard Cobra II, GMI, Minnesota, USA). The 50% inhibitory concentration (IC50) values were calculated by fitting the data using a nonlinear regression algorithm (GraphPad Software).

PSMA+ LNCaP cells = experiment: cell surface binding and internalization of radiolabeled compounds; type: cell-based; conditions: for Specific Cell Surface Binding / Specific Internalization / Cell Surface binding / Internalization: 68Ga-labeled
Protocol: as §1, §2
For internalization experiments, 10^5 cells per well were seeded in poly-L-lysine coated 24-well cell culture plates 24 h before incubation. After washing, the cells were incubated with 30 nM of the ^68Ga- or ^177Lu-radiolabeled compound for 45 min at 37° C. and at 4° C., respectively. Cellular uptake was terminated by washing 3 times with 1 mL of ice-cold PBS. To remove surface-bound radioactivity, cells were incubated twice with 0.5 mL glycine-HCl in PBS (50 mM, pH=2.8) for 5 min. The cells were washed with 1 mL of ice-cold PBS and lysed using 0.3 N NaOH (0.5 mL). The surface-bound and the internalized fractions were measured in a gamma counter. The cell uptake was calculated as percent of the initially added radioactivity bound to 10^5 cells [% ID/10^5 cells].

Compound | PSA value (prostate cancer; both patients) | response of patients (prostate cancer; two patients with extremely advanced and end-stage disease) | IC50 (PSMA) [nM] | Specific Cell Surface Binding (PSMA+ LNCaP cells) [% ID/10^5 cells] | Specific Internalization (PSMA+ LNCaP cells) [% ID/10^5 cells] | Cell Surface binding (PSMA+ LNCaP cells; blocked) [% ID/10^5 cells] | Internalization (PSMA+ LNCaP cells; blocked) [% ID/10^5 cells] | Cell Surface binding (PSMA+ LNCaP cells; not blocked) [% ID/10^5 cells] | Internalization (PSMA+ LNCaP cells; not blocked) [% ID/10^5 cells] | Specific cell surface bound (PSMA+ LNCaP cells; 177Lu-labeled, LNCaP cells) [% ID/10^5 cells] | Specific internalized (PSMA+ LNCaP cells; 177Lu-labeled, LNCaP cells) [% ID/10^5 cells]
O=C([O-])CC[C@H](NC(=O)N[C@@H](CCCCNC(=O)[C@H](Cc1ccc2ccccc2c1)NC(=O)C1CCC(CNC(=O)CN2CCN(CC(=O)[O-])CCN(CC(=O)[O-])CCN(CC(=O)[O-])CC2)CC1)C(=O)[O-])C(=O)[O-].[225Ac].[H+].[H+].[H+] (some centres unmarked) [225Ac-PSMA-617] | fell below the detectability limit | complete remission | – | – | – | – | – | – | – | – | –
O=C(O)CC[C@H](NC(=O)N[C@@H](CCCCNC(=O)[C@H](Cc1ccc2ccccc2c1)NC(=O)[C@H]1CC[C@H](CNC(=O)[C@H](Cc2c[nH]cn2)NC(=O)[C@H](Cc2c[nH]cn2)NC(=O)[C@H](Cc2c[nH]cn2)NC(=O)CN2CCN(CC(=O)O)CCN(CC(=O)O)CCN(CC(=O)O)CC2)CC1)C(=O)O)C(=O)O [PS-7, DOTA-(H)3-CHx-2NaI-PSMA] ({DOTA}-HHH[Trx][2Nal]-EuK) | – | – | 22.7 ± 6.47 | 0.69 ± 0.11 | 0.47 ± 0.11 | 0.123 ± 0.015 | 0.207 ± 0.021 | 0.817 ± 0.047 | 0.673 ± 0.093 | – | –
O=C(O)CC[C@H](NC(=O)N[C@@H](CCCCNC(=O)[C@H](Cc1c[nH]cn1)NC(=O)[C@H](Cc1c[nH]cn1)NC(=O)[C@H](Cc1c[nH]cn1)NC(=O)[C@H](Cc1ccc2ccccc2c1)NC(=O)[C@H]1CC[C@H](CNC(=O)CN2CCN(CC(=O)O)CCN(CC(=O)O)CCN(CC(=O)O)CC2)CC1)C(=O)O)C(=O)O [PS-8, DOTA-CHx-2NaI-(H)3-PSMA] ({DOTA-Trx}-[2Nal]HHH-EuK) | – | – | 78.6 ± 44.1 | 0.90 ± 0.03 | 0.51 ± 0.05 | 0.038 ± 0.010 | 0.093 ± 0.033 | 0.945 ± 0.030 | 0.600 ± 0.066 | – | –
O=C(O)CC[C@H](NC(=O)N[C@@H](CCCCNC(=O)[C@H](Cc1ccc2ccccc2c1)NC(=O)[C@H](CCC(=O)O)NC(=O)[C@H](CCC(=O)O)NC(=O)[C@H](CCC(=O)O)NC(=O)[C@H]1CC[C@H](CNC(=O)CN2CCN(CC(=O)O)CCN(CC(=O)O)CCN(CC(=O)O)CC2)CC1)C(=O)O)C(=O)O [PS-9, DOTA-CHx-(E)3-2NaI-PSMA] ({DOTA-Trx}-EEE[2Nal]-EuK) | – | – | 23.4 ± 9.7 | 0.59 ± 0.09 | 0.27 ± 0.07 | 0.060 ± 0.021 | 0.138 ± 0.046 | 0.650 ± 0.083 | 0.410 ± 0.090 | – | –
O=C(O)CCC(NC(=O)NC(CCCCNC(=O)C(Cc1ccc2ccccc2c1)NC(=O)C1CCC(CNC(=O)CN2CCN(CC(=O)O)CCN(CC(=O)O)CCN(CC(=O)O)CC2)CC1)C(=O)O)C(=O)O (centres unmarked) [PSMA-617, 2-[3-(1-Carboxy-5-{3-naphthalen-2-yl-2-[(4-{[2-(4,7,10-tris-carboxymethyl-1,4,7,10-tetraaza-cyclododec-1-yl)-acetylamino]-methyl}-cyclohexanecarbonyl)-amino]-propionylamino}-pentyl)-ureido]-pentanedioic acid, reference compound] | – | – | 21.8 ± 3.13 | 0.72 ± 0.06 | 0.39 ± 0.06 | 0.063 ± 0.014 | 0.117 ± 0.032 | 0.792 ± 0.134 | 0.504 ± 0.051 | 4.36 ± 1.33 | 2.94 ± 0.35
